Test results from patent publication US7056903B2, “Carboxylic acid derivatives as IP antagonists” (Syntex (U.S.A.) LLC, priority 2000, dated 2006).
“And” between values parts separate entries of the source, which are not always exact repeats. Identical values can stand only once. Counter-ions that a name gives are not always drawn.

melting point | Compound
150.9 to 152.7 °C | O=C(N[C@H](Cc1ccccc1)C(=O)O)OCc1nc2cc(-c3ccccc3)ccc2o1 (as salt: ammonium) [Compound 53, (R)-3-phenyl-2-(5-phenyl-benzoxazol-2-ylmethoxycarbonylamino) propionic acid]
176.3 to 182 °C | O=C(N[C@H](Cc1ccccc1)C(=O)O)OCC1Cc2cc(-c3ccccc3)ccc2O1 (stereo partly drawn) (as salt: salt) [Compound 68, (R)-3-Phenyl-2-(5-phenyl-2,3-dihydro-benzofuran-2-ylmethoxycarbonylamino)-propionic acid]
100 to 106 °C | O=C(N[C@H](Cc1ccccc1)C(=O)O)OCc1cc2cc(-c3cccc4[nH]ccc34)ccc2o1 (as salt: salt) [Compound 137, (R)-2-[5-(1H-indol-4-yl)-benzofuran-2-ylmethoxycarbonylamino]-3-phenyl-propionic acid]
129.5 to 131.5 °C | O=C(N[C@H](Cc1ccccc1)C(=O)O)OCc1cc2cc(-c3ccc(F)cc3)ccc2o1 (hydrate or solvate) [Compound 91, (R)-2-[5-(4-fluoro-phenyl)-benzofuran-2-ylmethoxycarbonylamino]-3-phenyl-propionic acid]
132 to 156.1 °C | COc1ccc(-c2ccc3oc(COC(=O)N[C@H](Cc4ccccc4)C(=O)O)cc3c2)cc1 (hydrate or solvate) [Compound 92, (R)-2-[5-(4-methoxy-phenyl)-benzofuran-2-ylmethoxycarbonylamino]-3-phenyl-propionic acid]
129.5 to 144 °C | O=C(N[C@H](Cc1ccccc1)C(=O)O)OCc1cc2cc(-c3ccc(Cl)cc3)ccc2o1 (hydrate or solvate) [Compound 94, (R)-2-[5-(4-chloro-phenyl)-benzofuran-2-ylmethoxycarbonylamino]-3-phenyl-propionic acid]
151 to 154 °C | Cc1ccc(-c2ccc3oc(COC(=O)N[C@H](Cc4ccccc4)C(=O)O)cc3c2)cc1 (hydrate or solvate) [Compound 95, (R)-2-[5-(4-methyl-phenyl)-benzofuran-2-ylmethoxycarbonylamino]-3-phenyl-propionic acid]
64 to 68.5 °C | N#Cc1cccc(-c2ccc3oc(COC(=O)N[C@H](Cc4ccccc4)C(=O)O)cc3c2)c1 (hydrate or solvate) [Compound 96, (R)-2-[5-(3-cyano-phenyl)-benzofuran-2-ylmethoxycarbonylamino]-3-phenyl-propionic acid]
125 to 131 °C | O=C(N[C@H](Cc1ccccc1)C(=O)O)OCc1cc2cc(-c3ccc4c(c3)OCO4)ccc2o1 (hydrate or solvate) [Compound 97, (R)-2-(5-benzo[1,3]dioxol-5-yl-benzofuran-2-ylmethoxycarbonylamino)-3-phenyl-propionic acid]
97.1 to 100.8 °C | O=C(N[C@H](Cc1ccccc1)C(=O)O)OCc1cc2cc(-c3ccccc3F)ccc2o1 (hydrate or solvate) [Compound 98, (R)-2-[5-(2-fluoro-phenyl)-benzofuran-2-ylmethoxycarbonylamino]-3-phenyl-propionic acid]
131.5 to 135 °C | O=C(N[C@H](Cc1ccc(F)cc1)C(=O)O)OCc1cc2cc(-c3ccccc3)ccc2o1 (hydrate or solvate) [Compound 105, (R)-3-(4-fluoro-phenyl)-2-(5-phenylbenzofuran-2-ylmethoxycarbonylamino)-propionic acid]
158 to 162 °C | O=C(N[C@H](Cc1ccc(F)cc1)C(=O)O)OCc1cc2cc(-c3ccc(F)cc3)ccc2o1 (hydrate or solvate) [Compound 111, (R)-3-(4-fluoro-phenyl)-2-[5-(4-fluorophenyl)-benzofuran-2-ylmethoxycarbonylamino]-propionic acid]
84 to 87.5 °C | N#Cc1cccc(-c2ccc3oc(COC(=O)N[C@H](Cc4ccc(F)cc4)C(=O)O)cc3c2)c1 (hydrate or solvate) [Compound 112, (R)-2-[5-(3-cyano-phenyl)-benzofuran-2-ylmethoxycarbonylamino]-3-(4-fluoro-phenyl)-propionic acid]
176.9 to 178.4 °C | O=C(N[C@H](Cc1ccc(F)cc1)C(=O)O)OCc1cc2cc(-c3cccnc3)ccc2o1 (hydrate or solvate) [Compound 125, (R)-3-(4-fluoro-phenyl)-2-(5-pyridin-3-yl-benzofuran-2-ylmethoxycarbonylamino)-propionic acid]
62.5 to 64.8 °C | COc1cccc(OCc2ccc(COC(=O)NC(Cc3ccccc3)C(=O)O)cc2)c1 (stereo not drawn) (hydrate or solvate) [Compound 154, 2-[4-(3-methoxy-phenoxymethyl)-benzyloxycarbonylamino]-3-phenyl-propionic acid]
115.9 to 116.7 °C | O=C(N[C@H](Cc1ccccc1)C(=O)O)OCc1ccc(COc2ccccc2)cc1 [Compound 7, (R)-2-(4-Phenoxymethyl-benzyloxycarbonylamino)-3-phenyl-propionic acid]
154 to 156 °C | O=C(N[C@H](Cc1ccccc1)C(=O)O)OCc1cc2cc(-c3ccccc3)ccc2o1 [Compound 19, (R)-2-(5-Phenyl-benzofuran-2-ylmethoxycarbonylamino)-3-phenyl-propionic acid]
172.8 to 173.5 °C | O=C(N[C@H](Cc1ccccc1)C(=O)O)OCc1ccc2oc(-c3ccccc3)cc2c1 [Compound 29, (R)-3-Phenyl-2-(2-phenyl-benzofuran-5-ylmethoxycarbonylamino)-propionic acid]

melting point | Compound
106.8 to 108.2 °C and 105.9 to 108.5 °C | O=C(NC(Cc1ccccc1)C(=O)O)OCc1ccc(COc2cccc3[nH]ccc23)cc1 (stereo not drawn) [Compound 41, 2-[4-(1H-indol-4-yloxymethyl)-benzyloxycarbonylamino]-3-phenyl-propionic acid]
150.2 to 152.4 °C | O=C(NC(Cc1ccccc1)C(=O)O)OCc1ccc(CCOc2ccccc2)cc1 (stereo not drawn) [Compound 73, 2-[4-(2-Phenoxy-ethyl)-benzyloxycarbonylamino]-3-phenyl-propionic acid]
92.6 to 93.5 °C | COc1ccccc1OCc1ccc(COC(=O)NC(Cc2ccccc2)C(=O)O)cc1 (stereo not drawn) [Compound 74, 2-[4-(2-methoxy-phenoxymethyl)-benzyloxycarbonylamino]-3-phenyl propionic acid]
114 to 117 °C | O=C(NC(Cc1ccccc1)C(=O)O)OCc1ccc(COc2ccccc2F)cc1 (stereo not drawn) [Compound 75, 2-[4-(2-fluoro-phenoxymethyl)-benzyloxycarbonylamino]-3-phenyl-propionic acid]
107.9 to 110 °C | O=C(NC(Cc1ccccc1)C(=O)O)OCc1ccc(COc2cccc(F)c2)cc1 (stereo not drawn) [Compound 76, 2-[4-(3-fluoro-phenoxymethyl)-benzyloxycarbonylamino]-3-phenyl-propionic acid]
161.9 to 164.9 °C | CS(=O)(=O)Nc1cccc(OCc2ccc(COC(=O)N[C@H](Cc3ccccc3)C(=O)O)cc2)c1 [Compound 77, (R)-2-[4-(3-methanesulfonylamino-phenoxymethyl)-benzyloxycarbonylamino]-3-phenyl-propionic acid]
96.6 to 98.6 °C | O=C(N[C@H](Cc1ccccc1)C(=O)O)OCc1ccc(COc2cccc(NS(=O)(=O)c3ccccc3)c2)cc1 [Compound 78, (R)-2-[4-(3-benzenesulfonylamino-phenoxymethyl)-benzyloxycarbonylamino]-3-phenyl-propionic acid]
190.3 to 193.5 °C | CC(=O)Nc1cccc(OCc2ccc(COC(=O)N[C@H](Cc3ccccc3)C(=O)O)cc2)c1 [Compound 79, (R)-2-[4-(3-acetylamino-phenoxymethyl)-benzyloxycarbonylamino]-3-phenyl-propionic acid]
160.8 to 161.7 °C | O=C(N[C@H](Cc1ccccc1)C(=O)O)OCc1ccc(COc2cccc([N+](=O)[O-])c2)cc1 [Compound 80, (R)-2-[4-(3-nitro-phenoxymethyl)-benzyloxycarbonylamino]-3-phenyl-propionic acid]
161.9 to 163.7 °C | O=C(N[C@H](Cc1ccccc1)C(=O)O)OCc1ccc(COc2cccc(NC(=O)c3ccccc3)c2)cc1 [Compound 81, (R)-3-phenyl-2-(4-{3-[(1-phenyl-methanoyl)-amino]-phenoxymethyl}-benzyloxycarbonylamino)-propionic acid]
104.2 to 104.7 °C | O=C(NC(Cc1ccccc1)C(=O)O)OCc1ccc(COc2ccccc2)c(F)c1 (stereo not drawn) [Compound 82, 2-(3-fluoro-4-phenoxymethyl-benzyloxycarbonylamino)-3-phenyl-propionic acid]
129.7 to 130.3 °C | O=C(NC(Cc1cccc(NS(=O)(=O)c2ccccc2)c1)C(=O)O)OCc1ccc(COc2ccccc2)cc1 (stereo not drawn) [Compound 83, 3-(3-benzenesulfonylamino-phenyl)-2-(4-phenoxymethyl-benzyloxycarbonylamino)-propionic acid]
118.3 to 119.9 °C | O=C(Cc1ccc(OCc2ccccc2)cc1)NC(Cc1ccccc1)C(=O)O (stereo not drawn) [Compound 84, 2-(4-benzyloxybenzylcarbonylamino)-3-phenyl-propionic acid]
134 to 138 °C | O=C(NC(Cc1ccccc1)C(=O)O)OCc1ccc(OCc2ccc(F)cc2)cc1 (stereo not drawn) [Compound 85, 2-[4-(4-fluoro-benzyloxy)-benzyloxycarbonylamino]-3-phenyl-propionic acid]
96.9 to 97.4 °C | O=C(NC(Cc1ccccc1)C(=O)O)OCc1ccc(OCCc2ccccc2)cc1 (stereo not drawn) [Compound 86, 2-(4-phenethyloxy-benzyloxycarbonylamino)-3-phenyl-propionic acid]
105.6 to 106.5 °C | O=C(N[C@H](Cc1ccccc1)C(=O)O)OCc1ccc(OCCCc2ccccc2)cc1 [Compound 87, (R)-3-phenyl-2-[4-(3-phenyl-propoxy)-benzyloxycarbonylamino]-propionic acid]
178 to 181 °C | O=C(O)C(Cc1ccccc1)NC(=O)C(O)c1ccc(OCc2cccc3[nH]ccc23)cc1 (stereo not drawn) [Compound 88, 2-{2-hydroxy-2-[4-(1H-indol-4-ylmethoxy)-phenyl]-ethanoylamino}-3-phenyl-propionic acid]
130 to 131.3 °C | O=C(N[C@H](Cc1ccccc1)C(=O)O)OCc1ccc(OCCOc2ccccc2)cc1 [Compound 89, (R)-2-[4-(2-phenoxy-ethoxy)-benzyloxycarbonylamino]-3-phenyl-propionic acid]
